Measurements reported in patent publication US10118935B2, “Melampomagnolide B dimers” (priority 2014, dated 2018).

What was measured:
[1] = system: SN12C; experiment: NCI 60 cell line five dose, Renal Cancer
[2] = system: TK-10; experiment: NCI 60 cell line five dose, Renal Cancer
[3] = system: BT-549; experiment: NCI 60 cell line five dose, Breast Cancer
[4] = system: T-47D; experiment: NCI 60 cell line five dose, Breast Cancer
[5] = system: OVCAR-3; experiment: NCI 60 cell line five dose, Ovarian Cancer
[6] = system: OVCAR-4; experiment: NCI 60 cell line five dose, Ovarian Cancer
[7] = system: NCI/ADR-RES; experiment: NCI 60 cell line five dose, Ovarian Cancer; conditions: NCI/ADR-
[8] = system: A549/ATCC; experiment: NCI 60 cell line five dose, Non-Small Cell Lung Cancer
[9] = system: HOP-92; experiment: as above
[10] = system: NCI-H226; experiment: as above
[11] = system: NCI-H23; experiment: as above
[12] = system: NCI-H460; experiment: as above

C=C1C(=O)O[C@H]2[C@H]1CC/C(COC(=O)NCCCCCCCCNC(=O)OC/C1=C/CC[C@@]3(C)O[C@H]3[C@H]3OC(=O)C(=C)[C@@H]3CC1)=C\CC[C@@]1(C)O[C@@H]21 [JVM 3-62, bis(((1aR,7aS, 10aS, 10bS, E)-1a-Methyl-8-methylene-9-oxo-1a,2,3,6,7,7a,8,9,10a,10b-decahydrooxireno[2′,3′:9,10]cyclodeca[1,2-b]furan-5-yl)methyl)octane-1,8-diyldicarbamate]
Percent Growth ([1]; Log10 Concentration −4.0): −59%
Percent Growth ([1]; Log10 Concentration −5.0): −65%
Percent Growth ([1]; Log10 Concentration −6.0): −7%
Percent Growth ([1]; Log10 Concentration −7.0): 91%
Percent Growth ([1]; Log10 Concentration −8.0): 100%
GI50 ([1]; molar): 264 nM
CC50 ([1]; read-out: LC50, molar): 5490 nM
Percent Growth ([2]; Log10 Concentration −4.0): −99%
Percent Growth ([2]; Log10 Concentration −5.0): −98%
Percent Growth ([2]; Log10 Concentration −6.0): −7%
Percent Growth ([2]; Log10 Concentration −7.0): 97%
Percent Growth ([2]; Log10 Concentration −8.0): 92%
GI50 ([2]; molar): 284 nM
TGI ([2]; molar): 8.56E−7
CC50 ([2]; read-out: LC50, molar): 2950 nM
Percent Growth ([3]; Log10 Concentration −4.0): −85%
Percent Growth ([3]; Log10 Concentration −5.0): −80%
Percent Growth ([3]; Log10 Concentration −6.0): −14%
Percent Growth ([3]; Log10 Concentration −7.0): 94%
Percent Growth ([3]; Log10 Concentration −8.0): 94%
GI50 ([3]; molar): 257 nM
TGI ([3]; molar): 7.48E−7
CC50 ([3]; read-out: LC50, molar): 3570 nM
Percent Growth ([4]; Log10 Concentration −4.0): −49%
Percent Growth ([4]; Log10 Concentration −5.0): −46%
Percent Growth ([4]; Log10 Concentration −6.0): −4%
Percent Growth ([4]; Log10 Concentration −7.0): 100%
Percent Growth ([4]; Log10 Concentration −8.0): 92%
GI50 ([4]; molar): 323 nM
TGI ([4]; molar): 9.15E−7
CC50 ([4]; read-out: LC50, molar): > 100000 nM
Percent Growth ([5]; Log10 Concentration −4.0): −100%
Percent Growth ([5]; Log10 Concentration −5.0): −98%
Percent Growth ([5]; Log10 Concentration −6.0): 3%
Percent Growth ([5]; Log10 Concentration −7.0): 101%
Percent Growth ([5]; Log10 Concentration −8.0): 102%
GI50 ([5]; molar): 330 nM
TGI ([5]; molar): 1.08E−6
CC50 ([5]; read-out: LC50, molar): 3320 nM
Percent Growth ([6]; Log10 Concentration −4.0): −89%
Percent Growth ([6]; Log10 Concentration −5.0): −92%
Percent Growth ([6]; Log10 Concentration −6.0): 34%
Percent Growth ([6]; Log10 Concentration −7.0): 91%
Percent Growth ([6]; Log10 Concentration −8.0): 90%
GI50 ([6]; molar): 521 nM
CC50 ([6]; read-out: LC50, molar): 4630 nM
Percent Growth ([7]; Log10 Concentration −4.0): −57%
Percent Growth ([7]; Log10 Concentration −5.0): 21%
Percent Growth ([7]; Log10 Concentration −6.0): 92%
Percent Growth ([7]; Log10 Concentration −7.0): 111%
Percent Growth ([7]; Log10 Concentration −8.0): 103%
GI50 ([7]; molar): 3910 nM
TGI ([7]; molar): 1.87E−5
CC50 ([7]; read-out: LC50, molar): 82000 nM
Percent Growth ([8]; Log10 Concentration −4.0): −84%
Percent Growth ([8]; Log10 Concentration −5.0): −72%
Percent Growth ([8]; Log10 Concentration −6.0): 87%
Percent Growth ([8]; Log10 Concentration −7.0): 96%
Percent Growth ([8]; Log10 Concentration −8.0): 96%
GI50 ([8]; molar): 1700 nM
TGI ([8]; molar): 3.51E−6
CC50 ([8]; read-out: LC50, molar): 7260 nM
Percent Growth ([9]; Log10 Concentration −4.0): −88%
Percent Growth ([9]; Log10 Concentration −5.0): −92%
Percent Growth ([9]; Log10 Concentration −6.0): −26%
Percent Growth ([9]; Log10 Concentration −7.0): 75%
Percent Growth ([9]; Log10 Concentration −8.0): 87%
GI50 ([9]; molar): 177 nM
TGI ([9]; molar): 5.51E−7
CC50 ([9]; read-out: LC50, molar): 2290 nM
Percent Growth ([10]; Log10 Concentration −4.0): −57%
Percent Growth ([10]; Log10 Concentration −5.0): −46%
Percent Growth ([10]; Log10 Concentration −6.0): 83%
Percent Growth ([10]; Log10 Concentration −7.0): 89%
Percent Growth ([10]; Log10 Concentration −8.0): 93%
GI50 ([10]; molar): 1810 nM
TGI ([10]; molar): 4.39E−6
Percent Growth ([11]; Log10 Concentration −4.0): −78%
Percent Growth ([11]; Log10 Concentration −5.0): −85%
Percent Growth ([11]; Log10 Concentration −6.0): 27%
Percent Growth ([11]; Log10 Concentration −7.0): 100%
Percent Growth ([11]; Log10 Concentration −8.0): 100%
GI50 ([11]; molar): 485 nM
TGI ([11]; molar): 1.74E−6
CC50 ([11]; read-out: LC50, molar): 4860 nM
Percent Growth ([12]; Log10 Concentration −4.0): −64%
Percent Growth ([12]; Log10 Concentration −5.0): −56%
Percent Growth ([12]; Log10 Concentration −6.0): 84%
Percent Growth ([12]; Log10 Concentration −7.0): 102%
Percent Growth ([12]; Log10 Concentration −8.0): 104%
GI50 ([12]; molar): 1750 nM
TGI ([12]; molar): 3.98E−6
CC50 ([12]; read-out: LC50, molar): 9020 nM
